According to PMC12186298, “Phase 1 clinical trial of eneboparatide, a novel PTH receptor 1 agonist” (Endocrine Connections, 2025):
Peptide text beside a SMILES is read from it.

Tested on: healthy subjects
Assay: Safety and tolerability, adverse events, Part A SAD
Format: in vivo, human
Experimental: Seven sequential cohorts were included in Part A. The first cohort was single-blind and included four subjects, of which three subjects were randomized to receive 5 μg eneboparatide and one subject was randomized to receive placebo. […] Subjects in Part A were admitted to the phase 1 study centre on day 1 and received the study drug at the clinical site on day 1 as a single, subcutaneous abdominal injection in the morning. They were discharged on day 4 and were asked to return for a follow-up (FU) visit on day 5–8.

`CC[C@H](C)[C@H](NC(=O)[C@H](CCC(=O)O)NC(=O)[C@H](C)NC(=O)[C@@H](NC(=O)[C@H](Cc1c[nH]cn1)NC(=O)[C@@H](NC(=O)[C@H](CCC(=O)O)NC(=O)[C@H](C)NC(=O)[C@@H](NC(=O)[C@H](CC(C)C)NC(=O)[C@H](CCCCN)NC(=O)[C@H](Cc1c[nH]cn1)NC(=O)[C@H](CC(C)C)NC(=O)[C@H](Cc1ccccc1)NC(=O)[C@H](C)NC(=O)[C@H](CCCNC(=N)N)NC(=O)[C@H](CCCNC(=N)N)NC(=O)[C@H](CCCNC(=N)N)NC(=O)[C@H](C)NC(=O)[C@H](CC(=O)O)NC(=O)[C@H](CCC(N)=O)NC(=O)[C@@H](NC(=O)[C@H](Cc1c[nH]c2ccccc12)NC(=O)[C@H](CCCCN)NC(=O)[C@H](C)NC(=O)[C@H](CCCNC(=N)N)NC(=O)[C@H](CCC(N)=O)NC(=O)[C@H](Cc1c[nH]cn1)NC(=O)[C@H](CCSC)NC(=O)[C@H](CC(C)C)NC(=O)[C@H](CCC(N)=O)NC(=O)[C@@H](NC(=O)[C@H](CCC(=O)O)NC(=O)[C@H](C)NC(=O)[C@@H](NC(=O)[C@H](C)N)C(C)C)[C@@H](C)CC)[C@@H](C)CC)[C@@H](C)CC)[C@@H](C)CC)[C@@H](C)O)C(=O)O` [eneboparatide] (H-AVAEIQLMHQRAKWIQDARRRAFLHKLIAEIHTAEI-OH; N-terminus and C-terminus assumed) was tested, and the “Decreased appetite, subjects with TEAE” value (single sc 10 μg, n = 6) was 0, the “Fatigue, subjects with TEAE” value (single sc 10 μg, n = 6) was 1 and the “Headache, subjects with TEAE” value (single sc 10 μg, n = 6) was 1. For the same molecule, the “Injection site erythema, subjects with TEAE” value (from here on “Injection site erythema”) (single sc 10 μg, n = 6) was 0, the “Injection site pain, subjects with TEAE” value (single sc 10 μg, n = 6) was 0 and the “Nausea, subjects with TEAE” value (single sc 10 μg, n = 6) was 0. The “Somnolence, subjects with TEAE” value (single sc 10 μg, n = 6) was 0, the “Catheter site haematoma, subjects with TEAE” value (“Catheter site haematoma” below) (single sc 20 μg, n = 6) was 0 and the “Decreased appetite, subjects with TEAE” value (single sc 20 μg, n = 6) was 1. For the same molecule, the “Fatigue, subjects with TEAE” value (single sc 20 μg, n = 6) was 1, the “Headache, subjects with TEAE” value (single sc 20 μg, n = 6) was 1 and the “Injection site erythema” value (single sc 20 μg, n = 6) was 0. For the same molecule, the “Injection site pain, subjects with TEAE” value (single sc 20 μg, n = 6) was 1, the “Nausea, subjects with TEAE” value (single sc 20 μg, n = 6) was 0 and the “Somnolence, subjects with TEAE” value (single sc 20 μg, n = 6) was 0. The “Catheter site haematoma” value (single sc 40 μg, n = 6) was 0, the “Decreased appetite, subjects with TEAE” value (single sc 40 μg, n = 6) was 0 and the “Fatigue, subjects with TEAE” value (single sc 40 μg, n = 6) was 0. For the same molecule, the “Headache, subjects with TEAE” value (single sc 40 μg, n = 6) was 0, the “Injection site erythema” value (single sc 40 μg, n = 6) was 0 and the “Injection site pain, subjects with TEAE” value (single sc 40 μg, n = 6) was 0. The “Nausea, subjects with TEAE” value (single sc 40 μg, n = 6) was 0, the “Somnolence, subjects with TEAE” value (single sc 40 μg, n = 6) was 0 and the “Catheter site haematoma” value (single sc 60 μg, n = 6) was 0. For the same molecule, the “Decreased appetite, subjects with TEAE” value (single sc 60 μg, n = 6) was 0, the “Fatigue, subjects with TEAE” value (single sc 60 μg, n = 6) was 1 and the “Headache, subjects with TEAE” value (single sc 60 μg, n = 6) was 0. The “Injection site erythema” value (single sc 60 μg, n = 6) was 0, the “Injection site pain, subjects with TEAE” value (single sc 60 μg, n = 6) was 0 and the “Nausea, subjects with TEAE” value (single sc 60 μg, n = 6) was 1. The “Somnolence, subjects with TEAE” value (single sc 60 μg, n = 6) was 0, the “Catheter site haematoma” value (single sc 90 μg, n = 6) was 1 and the “Decreased appetite, subjects with TEAE” value (single sc 90 μg, n = 6) was 2. For the same molecule, the “Fatigue, subjects with TEAE” value (single sc 90 μg, n = 6) was 0, the “Headache, subjects with TEAE” value (single sc 90 μg, n = 6) was 2 and the “Injection site erythema” value (single sc 90 μg, n = 6) was 2. For the same molecule, the “Injection site pain, subjects with TEAE” value (single sc 90 μg, n = 6) was 2, the “Nausea, subjects with TEAE” value (single sc 90 μg, n = 6) was 3 and the “Somnolence, subjects with TEAE” value (single sc 90 μg, n = 6) was 1. The “Catheter site haematoma” value (single sc 120 μg, n = 6) was 1, the “Decreased appetite, subjects with TEAE” value (single sc 120 μg, n = 6) was 3 and the “Fatigue, subjects with TEAE” value (single sc 120 μg, n = 6) was 0. For the same molecule, the “Headache, subjects with TEAE” value (single sc 120 μg, n = 6) was 3, the “Injection site erythema” value (single sc 120 μg, n = 6) was 0 and the “Injection site pain, subjects with TEAE” value (single sc 120 μg, n = 6) was 0. For the same molecule, the “Nausea, subjects with TEAE” value (single sc 120 μg, n = 6) was 4, the “Somnolence, subjects with TEAE” value (single sc 120 μg, n = 6) was 4 and the “Catheter site haematoma” value (total eneboparatide, n = 39) was 3 (7.7) n (%). The “Decreased appetite, subjects with TEAE” value (total eneboparatide, n = 39) was 6 (15.4) n (%), the “Fatigue, subjects with TEAE” value (total eneboparatide, n = 39) was 3 (7.7) n (%) and the “Headache, subjects with TEAE” value (total eneboparatide, n = 39) was 8 (20.5) n (%). The “Injection site erythema” value (total eneboparatide, n = 39) was 2 (5.1) n (%), the “Injection site pain, subjects with TEAE” value (total eneboparatide, n = 39) was 3 (7.7) n (%) and the “Nausea, subjects with TEAE” value (total eneboparatide, n = 39) was 8 (20.5) n (%). For the same molecule, the “Somnolence, subjects with TEAE” value (total eneboparatide, n = 39) was 5 (12.8) n (%) and the “nausea, subjects” value (transient, at 60, 90 and 120 μg) was “eight”.
